According to ChEMBL document CHEMBL1201862, “PubChem BioAssay data set” (2004):
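All cell lines were grown in 96-well plates and treated with compound for 48 hours. The concentration for 50% growth inhibition is given as GI50.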 The source made the active and inactive calls. No stated cut-off is given here; in the data, active = GI50 up to about 1.1 µM and inactive = higher.

Tests used:
Assay in all cases: NCI tumour cell line growth inhibition, 48 h
786-0 = system: 786-0
HL-60 = system: HL-60
KM12 = system: KM12
Malme-3M = system: Malme-3M
NCI-H226 = system: NCI-H226
NCI-H23 = system: NCI-H23
OVCAR-3 = system: OVCAR-3
OVCAR-5 = system: OVCAR-5
RPMI-8226 = system: RPMI-8226
SF-539 = system: SF-539
SNB-75 = system: SNB-75
SW-620 = system: SW-620
TK-10 = system: TK-10
UACC-257 = system: UACC-257
UACC-62 = system: UACC-62
UO-31 = system: UO-31
BT-549 = system: BT-549
MCF7 = system: MCF7
PC-3 = system: PC-3
MDA-N = system: MDA-N

Compound	GI50 (786-0)	GI50 (HL-60)	GI50 (KM12)	GI50 (Malme-3M)	GI50 (NCI-H226)	GI50 (NCI-H23)	GI50 (OVCAR-3)	GI50 (OVCAR-5)	GI50 (RPMI-8226)	GI50 (SF-539)	GI50 (SNB-75)	GI50 (SW-620)	GI50 (TK-10)	GI50 (UACC-257)	GI50 (UACC-62)	GI50 (UO-31)	GI50 (BT-549)	GI50 (MCF7)	GI50 (PC-3)	GI50 (MDA-N)
O=C(NCCO)c1cc2c(cn1)[nH]c1ccccc12	17.4 µM (inactive)	> 100 µM (inactive)	> 100 µM (inactive)	22.1 µM (inactive)	> 100 µM (inactive)	> 100 µM (inactive)	> 100 µM (inactive)	> 100 µM (inactive)	> 100 µM (inactive)	> 100 µM (inactive)	69.5 µM (inactive)	> 100 µM (inactive)	> 100 µM (inactive)	> 100 µM (inactive)	> 100 µM (inactive)	> 100 µM (inactive)				
CCOC(=O)c1c2c(n(Cc3ccccc3)c1C)C(=O)C(=O)c1ccccc1-2	0.56 µM (active)	0.0129 µM (active)	0.574 µM (active)	0.0968 µM (active)	0.55 µM (active)	0.231 µM (active)	0.0615 µM (active)	0.541 µM (active)	0.119 µM (active)	0.24 µM (active)	0.309 µM (active)	0.18 µM (active)	0.64 µM (active)	0.0989 µM (active)	0.284 µM (active)	0.906 µM (active)	0.337 µM (active)	0.293 µM (active)	0.807 µM (active)	
COC(=O)c1sc(C(=O)OC)c2c1C[S+]([O-])C2	> 100 µM (inactive)	> 100 µM (inactive)	> 100 µM (inactive)	> 100 µM (inactive)	> 100 µM (inactive)	> 100 µM (inactive)	> 100 µM (inactive)	> 100 µM (inactive)	> 100 µM (inactive)	> 100 µM (inactive)	> 100 µM (inactive)	> 100 µM (inactive)	> 100 µM (inactive)	> 100 µM (inactive)	> 100 µM (inactive)	> 100 µM (inactive)				
COc1nc2ccc(COc3ccc(C(=O)O)cc3)cc2nc1OC	> 100 µM (inactive)	53.8 µM (inactive)	> 100 µM (inactive)	> 100 µM (inactive)	78 µM (inactive)	> 100 µM (inactive)	> 100 µM (inactive)	> 100 µM (inactive)		45.5 µM (inactive)	11.7 µM (inactive)	83.8 µM (inactive)		> 100 µM (inactive)	33.6 µM (inactive)	> 100 µM (inactive)		> 100 µM (inactive)	71.4 µM (inactive)	38.2 µM (inactive)
Cc1oc2c(C)c3oc(=O)cc(C)c3cc2c1CN1C(=O)C2OCCOCCOCCOCCOCCO[C@H]2C1=O (some centres undefined)	> 100 µM (inactive)	> 100 µM (inactive)	> 100 µM (inactive)	> 100 µM (inactive)	> 100 µM (inactive)	> 100 µM (inactive)	> 100 µM (inactive)	> 100 µM (inactive)	> 100 µM (inactive)	> 100 µM (inactive)	> 100 µM (inactive)	> 100 µM (inactive)	> 100 µM (inactive)	> 100 µM (inactive)	> 100 µM (inactive)	> 100 µM (inactive)				
CC1=NC2=Nc3nc(C)cc[n+]3CN2C=C1	48.3 µM (inactive)			49.5 µM (inactive)	> 100 µM (inactive)	> 100 µM (inactive)	> 100 µM (inactive)	> 100 µM (inactive)	19.1 µM (inactive)	> 100 µM (inactive)	> 100 µM (inactive)	> 100 µM (inactive)	88.3 µM (inactive)	> 100 µM (inactive)	44.2 µM (inactive)	> 100 µM (inactive)	49.3 µM (inactive)	> 100 µM (inactive)	> 100 µM (inactive)	
COc1cccc(C2c3cc4c(cc3OC(N3CCOCC3)C2C)OCO4)c1OC (centres undefined)	5.22 µM (inactive)		5.68 µM (inactive)			14.8 µM (inactive)	3.04 µM (inactive)	13.1 µM (inactive)	6.59 µM (inactive)	10.6 µM (inactive)	4.88 µM (inactive)	5.4 µM (inactive)	15.5 µM (inactive)	8.02 µM (inactive)	15.4 µM (inactive)	7.03 µM (inactive)		7.91 µM (inactive)	11.3 µM (inactive)	13.7 µM (inactive)
O=P(O)(O)C=C=C1CCCCC1	> 100 µM (inactive)	24.3 µM (inactive)	> 100 µM (inactive)	> 100 µM (inactive)	> 100 µM (inactive)	> 100 µM (inactive)	> 100 µM (inactive)	> 100 µM (inactive)		> 100 µM (inactive)	> 100 µM (inactive)	> 100 µM (inactive)	> 100 µM (inactive)	> 100 µM (inactive)	> 100 µM (inactive)			> 100 µM (inactive)	> 100 µM (inactive)	> 100 µM (inactive)
